We go through nine molecules from patent US11274144B2, “Compositions and methods for the removal of biofilms” (priority 2013, dated 2022).

Data set [1] has as its system NTHI biofilms. As to the kind of experiment: synergism on pre-formed NTHI biofilms (FIGS. 14A-14C). Format: cell-based. On the procedure: To this end the ability to induce augmented structural destabilization of pre-formed NTHI biofilms was assessed when a sub-optimal concentration of anti-IHF was used along with one of each of three unique reagents.
Data set [2] deals with NTHI strain 86-028NP. Here is the method: 48 adults were ordered from Rauscher's Chinchilla Ranch (LaRue, Ohio) and were acclimated to the vivarium for 7-10 days prior to the beginning of the study. Prior to TB [transbullar or direct challenge into the middle ear cavity] challenge, baseline otoscopy and tympanometry were performed as well as a limited volume prebleed to collect serum. Chinchillas were anesthetized and 300 μl of NTHI (strain #86-028NP) suspension containing approximately 1000 cfu were introduced into the middle ear space via transbullar challenge. Animals were allowed to recover, then monitored daily for adverse reactions as per IACUC accepted animal use protocols. Routine otoscopy and tympanometry were performed every 2-3 days throughout the study.
Four days after challenge (day +4), chinchillas were anesthetized and a CT scan was performed to visualize biofilms present within the middle ear and to obtain pre-immunization images. The surface of the pinnae were cleaned and hydrated by wiping with a sterile gauze pad moistened with sterile pyrogen free saline. After ˜2 minutes (to allow the pinnae to dry), 50 μl of either the dmLT, IHF (purified E. coli IHF according to Experiment 1)+dmLT, or IHF+rsPiLA+dmLT solution will be added to the pinna and gently massaged in. Three chinchillas per cohort were sacrificed and tissues/samples collected (on days +4, and +11) to begin to determine mechanism of action.
Eleven days after challenge (day +11), the secondary immunization occurred as described above wherein the pinnae are cleaned/hydrated and immunogens were topically administered. Three chinchillas per cohort were sacrificed and tissues/samples collected to begin to determine mechanism of action.
Eighteen days after challenge (day +18), chinchillas were anesthetized and a CT scan were performed to identify any biofilms present, as well as to compare to the pre-immunization CT scans. The animals were then bled to collect serum and euthanized. […] Images were collected and the bulla were washed with 1 ml of sterile saline and re-imaged. The mucosa, along with any biofilm present, were collected from the right bulla and placed in a preweighed tube. These tissues were homogenized, serially diluted, and plated to determine cfu NTHI/mg wet weight tissue. The left bullae were filled with OCT compound and snap frozen for histological analysis.
Images of the left and right middle ear cavities, with resident biofilms, were scrambled and two images per animal were compiled into a single file for ranking by blinded evaluators. The relative amount of biomass remaining within the middle ear of each animal was ranked on a 0 to 4+ scale by blinded reviewers using the scale shown in Table 6 below. Titer ELISAs, cytokine arrays, and Biacore were run on the serum as well as on the collected middle ear effusions. The OCT embedded middle ears were sectioned and stained either for basic morphology and architecture (H&E) or for the presence of IHF using immunohistochemistry and/or immunofluorescence.
For the second animal immunization study, twenty adult chinchillas (body mass between 500-700 g), shown to have no evidence of middle ear disease by tympanometry and video otoscopy, were enrolled and divided into four cohorts of 5 animals each. All animals were again challenged transbullarly with approximately 1000 CFU NTHI strain 86-028NP per bulla. Four days later, after a biofilm formed in the middle ear cavities of these animals, they were immunized by a transcutaneous route (TCI) as described above. Formulations consisted of either: 10 μg IHF admixed with 10 μg dmLT, 10 μg IHF that had been pre-bound to DNA+dmLT, DNA+dmLT, or 10 μg dmLT alone.
Middle ears were again subsequently scored from 0 to 4+ for disease severity upon completion of the study.

The subject of data set [3] is dsDNA. Particulars: DNA (10 μM) to IHF (5 μM); FIG. 11. On the procedure: Middle ears were again subsequently scored from 0 to 4+ for disease severity upon completion of the study. To better assure that the IHF and DNA remained in complex for immunization, synthetic oligonucleotides identical to those used in the published co-crystallization study (see for e.g., Rice et al. (1996) Cell 87(7): 1295-1306) of a high affinity IHF binding site from the bacteriophage lambda recombination site attP at a molar ratio of 2:1 [DNA (10 μM) to IHF (5 μM)] was used.

Data set [4] addresses T1, IHF (Escherichia coli, UniProt P0A6X7+P0A6Y1).
T1 construct: IHF promoter purified from E. coli K12 (the full length combination of both IHF subunits); made in house; host or cells: E. coli overproducing strains (lambda PL promoter plasmids, e.g. K5746 / E738)
As to the kind of experiment: antibody response after subcutaneous immunization of chinchillas (Western blot, ELISA). Format: in vivo, E. coli. The note with it: chinchilla. The source says: Each animal received a priming dose followed by two identical boosts delivered at 30-day intervals.

Data set [5] in a line: BIACORE epitope mapping with antiserum of chinchillas immunized with IHF pre-complexed to DNA. Format: binding, chinchilla. The note with it: BIACORE biosensor. From the text:
(§1) To test this hypothesis, additional cohorts of chinchillas were immunized with either native full length IHF from E. coli (obtained from Nash) or with native full length IHF from E. coli (obtained from Nash) that had been complexed to an excess of double stranded DNA in order to best mimic how it would be presented in nature.

The nature of data set [6]: BIACORE epitope mapping with antiserum of chinchillas immunized with native IHF. Format: binding, chinchilla. Particulars: BIACORE biosensor.
From the text: as §1

In data set [7] the target is Staphylococcus aureus HU (Staphylococcus aureus, UniProt Q5HFV0). The note with it: cited from earlier work.
Data set [8] deals with Haemophilus influenzae IHF (Haemophilus influenzae, UniProt P43723). Particulars: also known as IhfA5; cited from earlier work.
Where [9] appears, read: amoxicillin 64 μg/ml, IHF antisera 1:50 dilution.
The mark [10] stands for this setting: first study, transcutaneous immunization.

T1 sequence (P0A6X7 2-99): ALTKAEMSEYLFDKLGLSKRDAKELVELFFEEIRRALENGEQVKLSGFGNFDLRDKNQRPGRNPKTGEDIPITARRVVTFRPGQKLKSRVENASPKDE
T1 sequence (P0A6Y1 whole entry): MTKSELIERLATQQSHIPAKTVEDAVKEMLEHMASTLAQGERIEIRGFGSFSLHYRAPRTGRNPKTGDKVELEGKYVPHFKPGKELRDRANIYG

`CC1(C)S[C@@H]2[C@H](NC(=O)[C@H](N)c3ccc(O)cc3)C(=O)N2[C@H]1C(=O)O` [amoxicillin]: in data set [1] (setting [9]), the “bacterial cell death in biofilm (vital dye, FIG. 14C)” value is “limited bacterial cell death” and the “effect on architecture/height of pre-formed NTHI biofilm (FIG. 14C)” value is recorded as “no measurable effect on the architecture”.
Turning to DNase, the “effect on pre-formed NTHI biofilm (FIG. 14A)” value in data set [1] (DNase at sub-optimal concentration, anti-IHF 1:200 dilution) was “marginal effect”.
Regarding “E. coli IHF: purified E. coli integration host factor, full length combination of both subunits, used as immunogen with adjuvant”, the “mean score for remaining biomass within the middle ears” value in data set [2] (first study, 2 weekly transcutaneous immunizations with dmLT adjuvant, day 18 after challenge, adjuvant only 2.8, 0 to 4+ scale) is reported as 1.5. Besides, in data set [2] (first study, homogenized biomass cultured on chocolate agar, vs adjuvant alone, FIG. 10B), the “bacterial load within remaining biomass” value was “statistically significant reduction of bacterial load”. Further, in data set [2] (setting [10]), the “immune response to immunization” value was “strong local and systemic immune response”; the “secondary sequelae of immunization noted upon necropsy” value was “no animal presented with obvious secondary sequelae”. In data set [2] (in vivo), the “resolution of experimental otitis media” value is “eradicating experimental otitis media significantly earlier than controls”. Also, the “mean residual middle ear biomass score” value in data set [2] (second study, TCI, 10 μg with 10 μg dmLT, adjuvant alone 2.2, 0 to 4+ scale, FIG. 12) is 0.9. The “binding of dsDNA (reduced mobility)” value in data set [3] is given as “bound dsDNA”. Moreover, the “reciprocal titer versus isolated IHF by ELISA” value in data set [4] (SQ immunization 10 μg with MPL, pre-immune reciprocal titers 100) is on record as 8000. Further, the “antibodies recognizing IHF by Western blot” value in data set [4] (SQ immunization with MPL, FIG. 13) was “strong immune response to isolated IHF”.
For the molecule “FLEEIRLSLESGQDVKLSGF (listed as Haemophilus influenzae) [A3, amino acids 31 to 50 of IHF]”, the “immune recognition of 20-mer peptides” value in data set [5] is reported as “greatest recognition”.
Turning to “RGFGSFSLHHRQPRLGRNPK (listed as Haemophilus influenzae) [B4, 46 to 65 of IHF]”, the “immune recognition of 20-mer peptides” value in data set [6] is “greatest immune recognition”.
Still for that read-out and setting: the entry for “RPGRNPKTGDVVPVSARRVV (listed as Haemophilus influenzae) [A5, amino acids 61 to 80 of IHF]” is “greatest immune recognition”.

B1: TRL1330: antibody, HC SEQ ID NO: 439, LC SEQ ID NO: 440 (antibody, V domains shown)
VH: QVQLVESGTEVKNPGASVKVSCTASGYKFDEYGVSWVRQSPGQGLEWMGWISVYNGKTNYSQNFQGRLTLTTETSTDTAYMELTSLRPDDTAVYYCATDKNWFDPWGPGTLVTVSS
VL: DIVLTQSPSASGSPGQSITISCTGTNTDYNYVSWYQHHPGKAPKVIIYDVKKRPSGVPSRFSGSRSGNTATLTVSGLQTEDEADYYCVSYADNNHYVFGSGTKVTVL
B1: the “binding for fragment […]” value in data set [7] (SEQ ID NO: 455) is recorded as “high affinity binding”.

B2: TRL295: antibody, HC SEQ ID NO: 413, LC SEQ ID NO: 414 (antibody, V domains shown)
VH: QVQLVESGGGLVQPGGSLRLSCAASGFPFSSYAMSWVRQAPGKGLEWVSAISGNGADSYYADSVKGRFTTSRDKSKNTVYLQMNRLRAEDTAVYYCAKDMRRYHYDSSGLHFWGQGTLVTVSS
VL: DIELTQAPSVSVYPGQTARITCSGDALPKQYAYWYQQKPGQAPVVVIYKDSERPSGISERFSGSSSGTTVTLTISGVQAGDEADYYCQSVDTSVSYYVVFGGGTKLTVL
In the case of B2, in data set [8], the epitope bound result is recorded as “bind to residues 61-80”.

B3: TRL1338: antibody, HC SEQ ID NO: 445, LC SEQ ID NO: 446 (antibody, V domains shown)
VH: QVQLTLRESGPTLVKPTQTLTLTCTFSGFSLSTNGVGVGWIRQPPGKALEWLAIIYWDDDKRYSPSLKSRLTITKDTSKNQVVLTLTNMDPVDTGTYYCAHILGASNYWTGYLRYYFDYWGQGTLVTVST
VL: DIEMTQSPSVSVSPGQTARITCSGEPLAKQYAYWYQQKSGQAPVVVIYKDTERPSGIPERFSGSSSGTTVTLTISGVQAEDEADYHCESGDSSGTYPVFGGGTKLTVL
Take B3: the “binding for fragment VPAFKAGKALKDAVK” value in data set [7] (SEQ ID NO: 456) is reported as “high affinity binding”.
